Measured values published in patent US10961189B2, “Spiro-lactam NMDA receptor modulators and uses thereof” (Aptinyx Inc., priority 2016, dated 2021).

What was measured:
Sprague Dawley rats [1] = assay: Bennett model of mechanical analgesia (sciatic nerve chronic constriction, paw withdrawal threshold); assay type: in vivo, rat; conditions: 150 mg/kg PO, example gabapentin control value;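 also: log paw withdrawal threshold scaled from vehicle group mean (0%) to naive 15 g value (100%)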
Protocol: The Bennett model of mechanical analgesia is used to assess the analgesic effects of compounds as measured by paw withdrawal threshold. Bennett GJ, Xie YK, “A peripheral mononeuropathy in rat that produces disorders of pain sensation like those seen in man,” Pain 33:87-107, 1988. […] Vehicle animals receive the surgery and then receive vehicle rather than test compound. Animals were tested 1 hr, 24 h and 1 wk post-test compound or vehicle administration.
Male 2-3 month old Sprague Dawley rats were used. Harlan was the supplier for all studies. Rats were housed in Lucite cages with aspen wood chip bedding, maintained on a 12:12 light:dark cycle (lights on at 5 AM), and given ad libitum access to Purina lab chow (USA) and tap water throughout the study.
Rats were anesthetized using inhaled isoflurane (2.5%). Sciatic nerve chronic constriction nerve injury surgery was performed as previously described (Bennett and Xie, 1988). An incision (˜1.5 cm in length) was made with a scalpel blade dorsally through skin on the right hind limb, parallel and posterior to femur. Using a small pointed hemostat, the biceps femoris and gluteus superficialis muscles were separated. Using curved blunt forceps, the common sciatic nerve was isolated and exposed. For the mechanical analgesia studies, the whole sciatic nerve was ligated. Using hemostats/forceps and chromic gut (5-0), the nerve was loosely ligated with a square knot; 3 ligatures, 1 mm apart were placed on the nerve. […] Testing occurred approximately 2 weeks post-surgery.
During testing, rats were acclimated to the surface of a suspended wire mesh grid (1 cm×1 cm, with the wire being 0.3 cm in diameter) for 15-20 min. Starting from the smallest, each Von Frey filament was pressed perpendicularly to the plantar surface of the affected (ipsilateral) hind paw until slightly bent and then held for 6 second. If an obvious hind paw withdrawal or a flinching behavior immediately after the withdrawal of the filament was not observed, the next larger filament was used in the same manner. In case of a response, a lower filament was used. This was repeated until six responses were collected.
For all studies, animals were baselined prior to study start to test for allodynia (defined as a paw withdrawal threshold under 5). A subset of animals was tested with gabapentin (150 mg/kg, PO) to ensure at least 50% analgesia. Once it was confirmed animals were ready for study initiation, animals were balanced across groups. All study investigators were blind to treatment conditions. Animals were dosed with 0.1, 1 or 10 mg/kg of test compound via oral gavage (PO), control sets of animals were dosed with gabapentin (150 mg/kg, PO) or vehicle (0.5% Na-CMC in 0.9% sterile saline, PO). Testing occurred 1 h post-dosing with animals retested 24 hrs and 1 week post-dosing. The percent analgesia calculations for each animal were made using the following equation: % analgesia=[(log(x)−y)/((log (z)−y)]*100, where x=the paw withdrawal threshold for the drug-treated animal in grams, y=the average of the log(x) values for the vehicle treated group, and z=the paw withdrawal threshold for naïve animals in grams (historical value of 15 used).
The results are shown in the table below where the percentage of analgesia is measured at 1 hour, 24 hours, and 1 week after compound administration. Since each study had its own gabapentin control group, an example gabapentin control value is shown.

Sprague Dawley rats [2] = assay: Porsolt forced swim test; assay type: in vivo, rat; set-up: key to Significance vs. vehicle: Yes: statistically significant (p<=0.05) from vehicle at dose level shown; No: not statistically significant from vehicle
Protocol: A non-clinical in vivo pharmacology study (Porsolt assay) was performed to measure antidepressant-like effects. A negative control (0.5% sodium carboxymethyl cellulose in 0.9% sterile saline vehicle) and a positive control (fluoxetine) are shown for comparison against test compound. The study allowed for the evaluation of the effects of each compound on the Porsolt forced swim test as assessed by the rats' response (reduced floating time) during a 5-minute swimming test.
Male 2-3 month old Sprague Dawley rats were used (Harlan, Indianapolis, Ind.). Rats were housed in Lucite cages with aspen wood chip bedding, maintained on a 12:12 light:dark cycle (lights on at 5 AM), and given ad libitum access to Purina lab chow (USA) and tap water throughout the study.
The Porsolt forced swim test adapted for use in rats was performed as described by Burgdorf et al., (The long-lasting antidepressant effects of rapastinel (GLYX-13) are associated with a metaplasticity process in the medial prefrontal cortex and hippocampus. Neuroscience 308:202-211, 2015). Animals were placed in a 46 cm tall×20 cm in diameter clear glass tube filled to 30 cm with tap water (23±1° C.) for 15 min on the first day (habituation) and 5 min on the subsequent test day. Positive control fluoxetine was dosed 3 times (24 h, 5 h and 1 h) prior to testing. Animals were tested 1 h or 24 h post-dosing with the test compounds or vehicle. Animals received a 15 min habituation session 1 day before the 5 min test. A subset of compounds tested at 1 h post-dosing were retested at 1 wk post-dosing in the same sets of animals. Water was changed after every other animal. Animals were videotaped, and floating time as defined as the minimal amount of effort required to keep the animals head above water was scored offline by a blinded experimenter with high inter-rater reliability (Pearson's r>0.9).
Each compound tested at dose level shown. Significance vs. vehicle group for each experiment is marked. […] A compound marked “No” was not statistically significant from vehicle. Data was averaged for test compound and vehicle groups (N approximately 8 per group) and the percent reduction in floating for group treated with test compound relative to group treated with vehicle is shown.

[3] = oral pharmacokinetics (plasma, brain, CSF); assay type: in vivo, Sprague Dawley rats; conditions: rat, per os 10 mg/kg; for AUC(0-t) / bioavailability / Tmax / Cmax: Sprague-Dawley, plasma, po, 10 mg/kg; for Tmax: normal saline (* in 5% NMP, 5% Solutol HS, 90% normal saline), read-out: Tmax; for Cmax: read-out: Cmax
Protocol: In another experiment, Sprague Dawley rats were dosed per os using a normal saline formulation containing 10 mg/kg of the compounds identified in the table below (except for the compounds marked with an asterisk (“*”) that were delivered in 5% NMP, 5% Solutol® HS and 90% normal saline formulation). Plasma, brain, and CSF samples were analyzed at various time points over a 24 hour period.

NMDAR2B = target: T1, NMDAR2B (Homo sapiens, UniProt Q13224); assay: [3H]MK-801 binding in NMDAR expressing HEK cell membranes (facilitation of NMDAR activation); assay type: biochemical; conditions: 50 μM glutamate; for EC50: read-out: B: log EC50 (converted); for Emax: 0.25 h, read-out: A: % maximal [3H]MK-801 binding relative to 1 mM glycine
T1 construct: expressed in transfected cells; host or cells: HEK cells (membrane extract)
Protocol: (§1) Assays were conducted as described by Moskal et al., “GLYX-13: a monoclonal antibody-derived peptide that acts as an N-methyl-D-aspartate receptor modulator,” Neuropharmacology, 49, 1077-87, 2005. These studies were designed to determine if the test compounds act to facilitate NMDAR activation in NMDAR2A, NMDAR2B, NMDAR2C or NMDAR2D expressing HEK cell membranes as measured by increases in [^3H]MK-801 binding.
(§2) In the assay, 300 μg of NMDAR expressing HEK cell membrane extract protein was preincubated for 15 minutes at 25° C. in the presence of saturating concentrations of glutamate (50 μM) and varying concentrations of test compound (1×10^15M−1×10^−7M), or 1 mM glycine. Following the addition of 0.3 μCi of [^3H]MK-801 (22.5 Ci/mmol), reactions were again incubated for 15 minutes at 25° C. (nonequilibrium conditions). Bound and free [^3H]MK-801 were separated via rapid filtration using a Brandel apparatus.
(§3) In analyzing the data, the DPM (disintegrations per minute) of [^3H]MK-801 remaining on the filter were measured for each concentration of test compound or for 1 mM glycine. The DPM values for each concentration of a ligand (N=2) were averaged. The baseline value was determined from the best fit curve of the DPM values modeled using the GraphPad program and the log(agonist) vs. response (three parameters) algorithm was then subtracted from all points in the dataset. The % maximal [^3H]MK-801 binding was then calculated relative to that of 1 mM glycine: all baseline subtracted DPM values were divided by the average value for 1 mM glycine. The EC50 and % maximal activity were then obtained from the best fit curve of the % maximal [^3H]MK-801 binding data modelled using the GraphPad program and the log(agonist) vs. response (three parameters) algorithm.
(§4) The tables below summarize the results for the wild type NMDAR agonists NMDAR2A, NMDAR2B, NMDAR2C, and NMDAR2D, and whether the compound is not an agonist (−), is an agonist (+), or is a strong agonist (++), where column A is based on the % maximal [^3H]MK-801 binding relative to 1 mM glycine (−=0; <100%=+; and >100%=++); and column B is based on log EC50 values (0=−; ≥1×10^−9 M (e.g., −8)=+; and <1×10^−9 M (e.g., −10)=++).

NMDAR2A = target: T2, NMDAR2A (Homo sapiens, UniProt Q12879); assay: as above; assay type: biochemical; conditions: 50 μM glutamate; for Emax: 0.25 h, read-out: A: % maximal [3H]MK-801 binding relative to 1 mM glycine; for EC50: read-out: B: log EC50 (converted)
T2 construct: expressed in transfected cells; host or cells: HEK cells (membrane extract)
Protocol: as §1, §2, §3, §4

IV pharmacokinetics = assay type: in vivo, Sprague Dawley rats; conditions: rat, normal saline (* in 5% NMP, 5% Solutol HS, 90% normal saline); for AUC(0-t) / half-life / C0 / Vd: Sprague-Dawley, in vivo, iv, 2 mg/kg; for C0: read-out: C0; for Vd: read-out: Vss; for CI: intravenous 2 mg/kg
From the text: The table below summarizes the results of the IV pharmacokinetics.

[4] = 20 mg/kg, dosed 3 times (24 h, 5 h and 1 h) prior to testing, 1 h post-dose

T2 sequence (Q12879 23-1464, species assumed, other chains not shown): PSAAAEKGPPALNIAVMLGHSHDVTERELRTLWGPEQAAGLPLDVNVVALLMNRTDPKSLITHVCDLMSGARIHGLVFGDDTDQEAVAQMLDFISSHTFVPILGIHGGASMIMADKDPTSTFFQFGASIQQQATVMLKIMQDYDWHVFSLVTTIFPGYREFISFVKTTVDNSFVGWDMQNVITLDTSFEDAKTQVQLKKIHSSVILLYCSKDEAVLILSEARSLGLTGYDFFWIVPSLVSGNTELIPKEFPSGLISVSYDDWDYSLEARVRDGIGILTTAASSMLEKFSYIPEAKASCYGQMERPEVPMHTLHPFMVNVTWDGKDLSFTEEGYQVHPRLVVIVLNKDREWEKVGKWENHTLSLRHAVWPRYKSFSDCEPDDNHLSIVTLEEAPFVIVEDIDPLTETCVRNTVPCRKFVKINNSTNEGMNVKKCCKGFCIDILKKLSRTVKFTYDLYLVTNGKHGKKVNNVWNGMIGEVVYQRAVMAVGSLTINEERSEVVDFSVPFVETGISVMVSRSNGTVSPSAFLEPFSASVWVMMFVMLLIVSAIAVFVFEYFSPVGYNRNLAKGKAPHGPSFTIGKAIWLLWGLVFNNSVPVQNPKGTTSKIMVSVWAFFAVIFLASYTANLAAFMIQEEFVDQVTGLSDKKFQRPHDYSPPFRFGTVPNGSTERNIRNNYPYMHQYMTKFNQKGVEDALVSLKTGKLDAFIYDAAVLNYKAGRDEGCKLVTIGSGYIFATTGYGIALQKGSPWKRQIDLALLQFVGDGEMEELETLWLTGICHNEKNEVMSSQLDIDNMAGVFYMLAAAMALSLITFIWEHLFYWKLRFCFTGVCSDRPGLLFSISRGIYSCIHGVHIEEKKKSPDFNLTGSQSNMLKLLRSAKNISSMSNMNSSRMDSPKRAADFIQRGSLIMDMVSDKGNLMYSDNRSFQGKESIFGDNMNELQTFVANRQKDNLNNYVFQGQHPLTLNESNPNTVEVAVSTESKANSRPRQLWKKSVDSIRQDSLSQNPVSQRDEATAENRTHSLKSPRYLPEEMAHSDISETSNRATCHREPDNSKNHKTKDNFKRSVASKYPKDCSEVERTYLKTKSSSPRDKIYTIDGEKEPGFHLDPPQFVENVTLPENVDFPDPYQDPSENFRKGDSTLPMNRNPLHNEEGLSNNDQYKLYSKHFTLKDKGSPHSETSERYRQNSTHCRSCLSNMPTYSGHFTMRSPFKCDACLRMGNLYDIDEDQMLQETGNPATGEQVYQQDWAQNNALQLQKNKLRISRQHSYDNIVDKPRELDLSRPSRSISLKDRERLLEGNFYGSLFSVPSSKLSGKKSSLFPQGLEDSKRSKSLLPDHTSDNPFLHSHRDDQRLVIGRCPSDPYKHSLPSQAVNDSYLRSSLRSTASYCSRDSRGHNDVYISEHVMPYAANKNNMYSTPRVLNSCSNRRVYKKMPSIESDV
T1 sequence (Q13224 27-1484, species assumed, other chains not shown): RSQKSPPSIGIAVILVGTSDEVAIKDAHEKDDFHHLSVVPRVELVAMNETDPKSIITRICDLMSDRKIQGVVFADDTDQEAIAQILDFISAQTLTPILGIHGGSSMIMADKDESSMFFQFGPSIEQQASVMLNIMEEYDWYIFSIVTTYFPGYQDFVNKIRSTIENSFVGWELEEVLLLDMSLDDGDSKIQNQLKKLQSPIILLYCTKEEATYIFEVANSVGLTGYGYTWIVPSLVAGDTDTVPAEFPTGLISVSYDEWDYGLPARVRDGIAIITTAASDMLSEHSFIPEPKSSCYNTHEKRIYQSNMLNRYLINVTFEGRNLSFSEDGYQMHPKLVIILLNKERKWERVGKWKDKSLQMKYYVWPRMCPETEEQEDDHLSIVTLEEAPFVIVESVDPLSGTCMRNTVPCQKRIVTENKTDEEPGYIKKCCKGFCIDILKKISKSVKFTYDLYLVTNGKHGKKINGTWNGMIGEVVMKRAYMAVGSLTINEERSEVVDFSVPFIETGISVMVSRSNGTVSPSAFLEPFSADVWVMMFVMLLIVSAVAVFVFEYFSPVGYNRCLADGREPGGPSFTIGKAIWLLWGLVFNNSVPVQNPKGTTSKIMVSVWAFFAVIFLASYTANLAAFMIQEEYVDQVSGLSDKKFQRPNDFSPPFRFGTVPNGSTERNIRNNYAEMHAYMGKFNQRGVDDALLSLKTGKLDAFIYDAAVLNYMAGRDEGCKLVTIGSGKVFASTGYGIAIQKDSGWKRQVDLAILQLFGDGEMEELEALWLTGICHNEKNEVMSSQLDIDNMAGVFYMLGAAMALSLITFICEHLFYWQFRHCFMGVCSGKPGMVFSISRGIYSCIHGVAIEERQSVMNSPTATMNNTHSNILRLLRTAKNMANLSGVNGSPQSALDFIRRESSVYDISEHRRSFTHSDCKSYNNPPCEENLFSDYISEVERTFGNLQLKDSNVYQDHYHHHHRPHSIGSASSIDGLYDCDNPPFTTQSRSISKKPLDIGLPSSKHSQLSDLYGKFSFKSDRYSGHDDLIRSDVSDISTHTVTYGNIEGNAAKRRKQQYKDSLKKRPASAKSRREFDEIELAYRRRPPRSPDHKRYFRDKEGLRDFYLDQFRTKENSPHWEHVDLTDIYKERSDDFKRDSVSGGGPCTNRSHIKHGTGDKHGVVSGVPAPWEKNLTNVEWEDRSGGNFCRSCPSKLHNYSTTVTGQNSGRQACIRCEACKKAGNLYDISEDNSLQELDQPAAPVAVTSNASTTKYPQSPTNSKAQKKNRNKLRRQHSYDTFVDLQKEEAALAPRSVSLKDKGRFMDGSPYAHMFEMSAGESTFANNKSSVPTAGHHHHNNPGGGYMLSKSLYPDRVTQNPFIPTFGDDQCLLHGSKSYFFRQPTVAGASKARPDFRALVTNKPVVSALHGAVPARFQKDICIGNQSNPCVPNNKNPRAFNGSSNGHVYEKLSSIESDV

| Compound | % reduction in float time (Sprague Dawley rats [2]; 0.1 mg/kg, 1 h post-dose) [%] | Significance vs. vehicle (Sprague Dawley rats [2]; 0.1 mg/kg, 1 h post-dose) | % reduction in float time (Sprague Dawley rats [2]; 0.1 mg/kg, 24 h post-dose) [%] | Significance vs. vehicle (Sprague Dawley rats [2]; 0.1 mg/kg, 24 h post-dose) | AUC(0-t) [3] [ng·h/mL] | bioavailability [3] [%] | Tmax [3] [min] | Cmax [3] [ng/mL] | EC50 (NMDAR2B) [nM] | Emax (NMDAR2B) [%] | Emax (NMDAR2A) [%] | AUC(0-t) (IV pharmacokinetics) [ng·h/mL] | half-life (IV pharmacokinetics) [min] | C0 (IV pharmacokinetics) [ng/mL] | Vd (IV pharmacokinetics) [L/kg] | CI (IV pharmacokinetics) [mL/min/kg] | EC50 (NMDAR2A) [nM] | other results |
| --- | --- | --- | --- | --- | --- | --- | --- | --- | --- | --- | --- | --- | --- | --- | --- | --- | --- | --- |
| NCC1(CC(=O)O)CCCCC1 [Gabapentin, reference compound] |  |  |  |  |  |  |  |  |  |  |  |  |  |  |  |  |  | % analgesia (Sprague Dawley rats [1]; 1 wk post-dosing): 0%; % analgesia (Sprague Dawley rats [1]; 1 h post-dosing): 72%; % analgesia (Sprague Dawley rats [1]; 1 h post-dosing, listed as gabapentin): at least 50% |
| C[C@@H](O)[C@@H](C(N)=O)N1CC2(CCCCC2)C1=O [Compound AA, (2S,3R)-3-hydroxy-2-(1-oxo-2-azaspiro[3.5]nonan-2-yl)butanamide] | 42.0 | Yes (statistically significant (p<=0.05) from vehicle at dose level shown) | 48.60 | Yes (statistically significant (p<=0.05) from vehicle at dose level shown) | 1540 | 78 | 19.8 | 1230 | < 1 | < 100 | 0 | 397 | 35.4 | 608 | 2.23 | 84.91 |  |  |
| CC1CCC2(CC1)CN(C(CCC(N)=O)C(N)=O)C2=O (single isomer, unassigned) [BF, 2-(7-methyl-1-oxo-2-azaspiro[3.5]nonan-2-yl)pentanediamide] | 84.4 | Yes (statistically significant (p<=0.05) from vehicle at dose level shown) |  |  | 5290 | 100 | 30 | 3020 | < 1 |  |  | 973 | 90.6 | 2220 | 1.52 | 34.13 | < 1 | CSF Cmax ([3]; CSF): 56.6 ng/mL; Brain Cmax ([3]; brain): 61.2 ng/mL; A: % maximal [3H]MK-801 binding relative to 1 mM glycine (NMDAR2B): + (<100%=+); A: % maximal [3H]MK-801 binding relative to 1 mM glycine (NMDAR2A): + (<100%=+) |
| CNCCC(Oc1ccc(C(F)(F)F)cc1)c1ccccc1 (stereo not drawn) [Fluoxetine, reference compound] |  |  |  |  |  |  |  |  |  |  |  |  |  |  |  |  |  | % reduction in float time (Sprague Dawley rats [2]; [4]): 54%; Significance vs. vehicle (Sprague Dawley rats [2]; [4]): Yes (statistically significant (p<=0.05) from vehicle at dose level shown) |
| O=C1NCC12CCCCC2 [Compound AB, 2-azaspiro[3.5]nonan-1-one] | 73.2 | Yes (statistically significant (p<=0.05) from vehicle at dose level shown) | 79.90 | Yes (statistically significant (p<=0.05) from vehicle at dose level shown) | 11600 | 88 | 25.2 | 7690 | < 1 | < 100 | < 100 | 2650 | 205 | 2050 | 1.13 | 16.1 | ≥ 1 |  |
| NC(=O)C(CO)N1CC2(CCCCC2)C1=O (single isomer, unassigned) [AS, 3-hydroxy-2-(l-oxo-2-azaspiro[3.5]nonan-2-yl)propanamide] | 82.3 | Yes (statistically significant (p<=0.05) from vehicle at dose level shown) |  |  |  |  |  |  | < 1 | < 100 | < 100 |  |  |  |  |  | < 1 | % reduction in float time (Sprague Dawley rats [2]; 0.1 mg/kg, 1 wk post-dose): 32.0%; Significance vs. vehicle (Sprague Dawley rats [2]; 0.1 mg/kg, 1 wk post-dose): No |
